The values that follow come from ChEMBL document CHEMBL4312024, “Optimization of piperazine-derived ureas privileged structures for effective antiadenovirus agents” (Eur J Med Chem, 2020).

In series [1] the test system is Human adenovirus 5. In words: Antiviral activity against Human adenovirus 5 infected in A549 cells assessed as decrease in […] cDNA copies incubated for 24 hrs by qRT-PCR analysis. The class given is functional, organism-based. For orientation: Real-time PCR tracks product formation cycle by cycle.
The nature of series [2]: Cytotoxicity against human A549 cells assessed as reduction in cell viability incubated for 48 hrs by alamarBlue assay. The class given is cell-based. In general terms: Resazurin is reduced to fluorescent resorufin, in cell work by metabolically active cells.
In series [3] the test system is Human adenovirus 5. Kind of series: Antiviral activity against Human adenovirus 5 infected in A549 cells assessed as decrease in […] cDNA copies at 50 uM incubated for 24 hrs by qRT-PCR analysis. It is filed as functional, organism-based.
The nature of series [4]: Selectivity Index, ratio of CC50 for human A549 cells to IC50 for Human adenovirus 5 infected in HEK293beta5 cells coexpressing GFP. The settings on record: read-out: Ratio CC50/IC50. The class given is toxicity, cell-based.
Series [5] has as its system Human adenovirus 5. Kind of series: Antiviral activity against Human adenovirus 5 infected in HEK293beta5 cells coexpressing GFP assessed as inhibition of plaque formation at 10 uM incubated for 7 days relative to control. It is filed as functional. The note with it: Human mastadenovirus C, 168 h.
Series [6] deals with Human betaherpesvirus 5. Kind of series: Antiviral activity against Human cytomegalovirus infected in MRC5 cells assessed as decrease in viral DNA copies at 50 uM incubated for 72 hrs by qRT-PCR analysis. The class given is functional, organism-based.
The test system of series [7] is Human adenovirus 5. Kind of series: Antiviral activity against Human adenovirus 5 infected in HEK293beta5 cells coexpressing GFP assessed as inhibition of plaque formation incubated for 7 days. It is filed as functional, organism-based. The note with it: Human mastadenovirus C, 168 h.
Series [8] has as its system Human adenovirus 5. In words: Antiviral activity against Human adenovirus 5 infected in A549 cells assessed as nuclear associated viral DNA copies at 50 uM incubated for 45 mins by qRT-PCR analysis. It is filed as functional, organism-based.
Series [9] relates to Human adenovirus 5. In words: Antiviral activity against Human adenovirus 5 infected in A549 cells assessed as fold reduction in virus yield at 50 uM incubated for 48 hrs by endpoint dilution method relative to control. The class given is functional.
A short description of series [10]: Stability in Syrian hamster serum assessed as parent compound remaining at 1 uM measured after 30 mins by LC-MS/MS analysis. The settings on record: for remaining at 0.5 h, 1 µM: read-out: Stability. It is filed as ADME, cell-free, Mesocricetus auratus.
Series [11] in a line: Stability in Syrian hamster serum assessed as parent compound remaining at 1 uM measured after 15 mins by LC-MS/MS analysis. The class given is ADME, cell-free, Mesocricetus auratus. The note with it: for remaining at 0.25 h, 1 µM: read-out: Stability.
The nature of series [12]: Stability in Syrian hamster serum assessed as parent compound remaining at 1 uM measured after 60 mins by LC-MS/MS analysis. The class given is ADME, cell-free, Mesocricetus auratus. The note with it: read-out: Stability.
The nature of series [13]: Stability in Syrian hamster serum assessed as parent compound remaining at 1 uM measured immediately by LC-MS/MS analysis. The class given is ADME, cell-free, Mesocricetus auratus. The settings on record: read-out: Stability.
The nature of series [14]: Stability in Syrian hamster serum assessed as parent compound remaining at 1 uM measured after 120 mins by LC-MS/MS analysis. It is filed as ADME, cell-free, Mesocricetus auratus. The note with it: read-out: Stability.

Activity calls are given as the source filed them. No cut-off for these calls is given here.

As to `CC[C@H](C)[C@@H]1NC(=O)CNC(=O)[C@@H]2Cc3c([nH]c4cc(O)ccc34)[S@+]([O-])C[C@H](NC(=O)CNC1=O)C(=O)N[C@@H](CC(N)=O)C(=O)N1C[C@H](O)C[C@H]1C(=O)N[C@@H]([C@@H](C)[C@@H](O)CO)C(=O)N2`, the Activity entry in series [1] was “Dose-dependent effect”.

Consider `CC1CN(C(=O)Cc2ccccc2)CCN1C(=S)Nc1ccc(C#N)cc1` (stereo not drawn), for which, in series [2], the CC50 (as a rule, the concentration that lowers cell viability or growth by half) at 48 h is 175 µM. For the same compound, the outcome in series [3] was inactive. Also, in [4], the selectivity ratio stood at 38. In addition, the inhibition – broadly, the relative decrease from the control value, in per cent – at 10 µM in series [5] was found to be 98.4%. The outcome in series [6] and in series [8] was Active. For the same compound, the IC50 (in general, the midpoint of a concentration-inhibition curve) in [7] was 4.6 µM. Also, the “fold change (FC)” value in series [9] came to 18.4.

Take `CC1CN(C(=O)Cc2ccccc2)CCN1C(=S)Nc1ccc([N+](=O)[O-])cc1` (stereo not drawn): the CC50 at 48 h in series [2] came out at 210 µM. Moreover, in series [3], the outcome was inactive. Further, the Stability stood at 139.4% in [10] (0.5 h, 1 µM) and 142.7% in series [11] (0.25 h, 1 µM). Further, in [4], the selectivity ratio turned out to be 105. In addition, the inhibition at 10 µM in [5] is 98.2%. Also, the remaining at 1 h, 1 µM in series [12] turned out to be 114%. For the same compound, in series [13], the remaining at 0 min, 1 µM came out at 100%. Besides, the outcome in [6] and in series [8] was Active. For the same compound, the IC50 in series [7] stood at 2 µM. In addition, in series [9], the “fold change (FC)” value is 25.6. In addition, the remaining at 2 h, 1 µM in series [14] came to 107%.

As to `CC1CN(C(=O)Cc2ccccc2)CCN1C(=S)Nc1cc(C(F)(F)F)cc(C(F)(F)F)c1` (stereo not drawn), the Activity entry in series [1] is “Dose-dependent effect”. Moreover, the outcome in series [3], in series [6] and in [8] was Active. In addition, the remaining at 0.5 h, 1 µM in [10] came out at 107%. Also, the remaining at 0.25 h, 1 µM in [11] stood at 109%. For the same compound, the selectivity ratio in series [4] was determined as 25.4. Besides, the inhibition at 10 µM in [5] was 73.4%. Moreover, the remaining at 1 h, 1 µM in series [12] was found to be 96.5%. In [13], the remaining at 0 min, 1 µM was determined as 100%. In series [7], the IC50 was 5.1 µM. Further, the “fold change (FC)” value in [9] amounted to 33.4. Besides, the remaining at 2 h, 1 µM in series [14] stood at 92.8%.

Regarding `CC(C)(C)OC(=O)N1CCN(C(=O)Nc2ccc([N+](=O)[O-])cc2)CC1`, the CC50 at 48 h in series [2] was found to be 118 µM. Further, in series [3], the result was inactive. The selectivity ratio in series [4] was determined as 43.7. In series [5], the inhibition at 10 µM came to 91.5%. In addition, the result in series [6] and in series [8] was Active. In addition, in series [7], the half-maximal inhibitory concentration (IC50) was determined as 2.7 µM. Also, in series [9], the “fold change (FC)” value is recorded as 21.2.

Take `O=C(Cc1ccccc1)N1CCN(C(=S)Nc2cc(C(F)(F)F)cc(C(F)(F)F)c2)C(c2ccccc2)C1` (stereo not drawn): in series [2], the CC50 at 48 h turned out to be 104 µM. In addition, the remaining at 0.5 h, 1 µM in [10] is 110%. In addition, in series [11], the remaining at 0.25 h, 1 µM amounted to 97.2%. In addition, the selectivity ratio in series [4] amounted to 149. For the same compound, the inhibition at 10 µM in series [5] stood at 100%. For the same compound, in [12], the remaining at 1 h, 1 µM turned out to be 90.5%. Besides, the remaining at 0 min, 1 µM in series [13] amounted to 100%. Also, in [7], the IC50 stood at 0.7 µM. Besides, the result in [8] was Active. Also, the “fold change (FC)” value in series [9] is 1690. Moreover, the remaining at 2 h, 1 µM in series [14] was 100%.

Regarding `Cc1ccc(NC(=S)N2CCN(C(=O)CC3CCCCC3)CC2C)cc1` (stereo not drawn), the half-maximal cytotoxic concentration (CC50) at 48 h in series [2] came to 122 µM. The result in [3] was inactive. Moreover, the selectivity ratio in series [4] was 58.2. Also, the inhibition at 10 µM in series [5] worked out at 95.8%. Besides, the result in [6] and in [8] was Active. Moreover, the half-inhibitory concentration (IC50) in series [7] is 2.1 µM. Further, the “fold change (FC)” value in series [9] came out at 39.1.

As to `O=C(CC1CCCCC1)N1CCN(C(=O)Nc2ccccc2[N+](=O)[O-])C(c2ccccc2)C1` (stereo not drawn), the CC50 at 48 h in series [2] came to 112 µM. In addition, the selectivity ratio in series [4] is 80.1. The inhibition at 10 µM in series [5] amounted to 100%. Besides, the outcome in series [6] and in series [8] was Active. In addition, the half-inhibitory concentration (IC50) in series [7] was determined as 1.4 µM. Further, in series [9], the “fold change (FC)” value is on record as 15.2.

For the compound `O=C(Cc1ccccc1)N1CCN(C(=O)Nc2ccccc2[N+](=O)[O-])C(c2ccccc2)C1` (stereo not drawn), the CC50 at 48 h in series [2] is 120 µM. Also, in series [4], the selectivity ratio turned out to be 57.4. In series [5], the inhibition at 10 µM is 96.9%. The result in series [6] and in series [8] was Active. Moreover, the IC50 in series [7] is 2.1 µM. For the same compound, the “fold change (FC)” value in series [9] came out at 32.9.

As to `CC1CN(C(=O)CC2CCCCC2)CCN1C(=S)Nc1ccc(F)cc1` (stereo not drawn), in series [2], the cytotoxic concentration (CC50) at 48 h amounted to 143 µM. Also, the remaining at 0.5 h, 1 µM in [10] was 96.4%. For the same compound, the remaining at 0.25 h, 1 µM in series [11] came to 117%. For the same compound, the selectivity ratio in [4] stood at 238. Besides, the inhibition at 10 µM in series [5] turned out to be 100%. The remaining at 1 h, 1 µM in [12] is 85%. In addition, the remaining at 0 min, 1 µM in [13] amounted to 100%. Moreover, the IC50 in [7] was determined as 0.6 µM. The result in series [8] was Active. The “fold change (FC)” value in series [9] is listed as 30.5. The remaining at 2 h, 1 µM in series [14] worked out at 67.3%.

As to `CC1CN(C(=O)OC(C)(C)C)CCN1C(=S)Nc1ccc(F)cc1` (stereo not drawn), in [2], the 50% cytotoxic concentration (CC50) at 48 h came to 200 µM. Moreover, the remaining at 0.5 h, 1 µM in series [10] came out at 102%. In series [11], the remaining at 0.25 h, 1 µM came out at 97.8%. In addition, the selectivity ratio in [4] came to 111. For the same compound, the inhibition at 10 µM in series [5] was determined as 92.9%. Besides, the remaining at 1 h, 1 µM in [12] is 86.5%. Also, the remaining at 0 min, 1 µM in [13] was 100%. The IC50 in [7] was 1.8 µM. In series [8], the outcome was Active. Also, the “fold change (FC)” value in series [9] is 12.1. Besides, in series [14], the remaining at 2 h, 1 µM is 75.4%.
